Test results as given in the supplement of paper PMC10307832.

Tests used:
Test in all cases: relative viability (nuclei count vs DMSO), 5 days (fraction); higher = more cells survive
[1] = compound: Nc1ncn([C@H]2C[C@H](O)[C@@H](CO)O2)c(=O)n1 [Decitabine] + O=C(c1cc(Cc2n[nH]c(=O)c3ccccc23)ccc1F)N1CCN(C(=O)C2CC2)CC1 [Olaparib] (partner 8 µM)
Summary of the method: (§1)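 Relative viability was taken as the ratio of nuclei in treated wells to nuclei in vehicle wells. Lung cancer cell lines in 1536-well plates received compounds by pin tool one day after seeding, either one drug alone or a fixed anchor-drug dose plus five library-drug doses (not always all listed) in √10 steps. Nuclei were counted on 4× images after 5 days of treatment, and values are medians of duplicate plates.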

[2] = compound: O=C(C[C@H]1NCCC[C@@H]1O)Cn1cnc2cc(Br)c(Cl)cc2c1=O (racemic) [Halofuginone] + Cc1cc(Nc2cc(N3CCN(C)CC3)nc(Sc3ccc(NC(=O)C4CC4)cc3)n2)n[nH]1 [Tozasertib] (partner 0.1 µM)
Summary of the method: as §1

[3] = compound: COc1cc2c(Oc3ccc4[nH]c(C)cc4c3F)ncnc2cc1OCCCN1CCCC1 [Cediranib] + CS(=O)(=O)CCNCc1ccc(-c2ccc3ncnc(Nc4ccc(OCc5cccc(F)c5)c(Cl)c4)c3c2)o1 [Lapatinib] (partner 2 µM)
Summary of the method: as §1

[4] = compound: COc1cc2c(Oc3ccc4[nH]c(C)cc4c3F)ncnc2cc1OCCCN1CCCC1 [Cediranib] + O=C(CCCCCCC(=O)Nc1ccccc1)NO [Vorinostat] (partner 1 µM)
Summary of the method: as §1

Cell Line	relative viability ([1]; first compound 0.04 µM)	relative viability ([1]; first compound 0.1265 µM)	relative viability ([1]; first compound 0.4 µM)	relative viability ([1]; first compound 1.265 µM)	relative viability ([1]; first compound 4 µM)	relative viability ([2]; first compound 0.001 µM)	relative viability ([2]; first compound 0.003162 µM)	relative viability ([2]; first compound 0.01 µM)	relative viability ([2]; first compound 0.03162 µM)	relative viability ([2]; first compound 0.1 µM)	relative viability ([3]; first compound 0.04 µM)	relative viability ([3]; first compound 0.4 µM)	relative viability ([3]; first compound 1.265 µM)	relative viability ([3]; first compound 4 µM)	relative viability ([4]; first compound 0.04 µM)	relative viability ([4]; first compound 0.1265 µM)	relative viability ([4]; first compound 0.4 µM)	relative viability ([4]; first compound 1.265 µM)	relative viability ([4]; first compound 4 µM)	relative viability ([3]; first compound 0.1265 µM)
NCI-H23	0.229	0.2	0.166	0.134	0.154	0.387	0.399	0.383	0.387	0.265	0.977	1.21	0.881	1.38	0.545	0.487	0.532	0.587	0.789	–
NCI-H1975	0.292	0.266	0.232	0.193	0.174	1.04	0.848	0.737	0.354	0.13	1.06	0.801	0.905	0.835	0.757	0.716	0.704	0.669	0.785	1.26
COR-L 105	0.609	0.546	0.524	0.505	0.403	0.337	0.288	0.385	0.329	0.346	–	0.361	0.339	0.337	0.921	0.847	0.733	0.766	0.91	0.304
LK-2	0.497	0.38	0.297	0.211	0.24	0.163	0.164	0.184	0.16	0.181	1.01	0.842	0.952	0.732	0.352	0.332	0.421	0.353	0.279	0.728
EKVX	0.551	0.454	0.322	0.252	0.232	0.432	0.377	0.352	0.354	0.349	0.19	0.196	0.227	0.203	0.956	0.534	0.63	0.916	0.697	0.23
NCI-H2009	0.475	0.261	0.322	0.215	0.293	0.897	0.754	0.746	0.659	0.366	0.882	0.94	0.899	1.15	0.736	0.672	0.715	0.736	0.717	0.239
NCI-H838	0.26	0.273	0.261	0.193	0.199	0.257	0.315	0.256	0.214	0.212	1.02	0.914	0.737	1.11	0.703	0.712	0.678	0.763	0.838	0.796
NCI-H2085	0.46	0.42	0.425	0.324	0.344	0.959	0.877	0.729	0.847	0.716	0.846	0.839	0.725	0.774	0.832	0.721	0.746	0.832	0.769	0.791
